Reference: patent US20050130116A1, “Stable expression of polymorphous forms of human cytochrome p450 2d6” (priority 2000, published 2005)
Like-named read-outs stand apart in the source and are kept apart here.

Experiments:
hCYP2D6 1 [1] = details: cited from earlier work; for Km: racemic bufuralol
hCYP2D6 1 [2] = molecular target: T1, hCYP2D6 1 (Homo sapiens, UniProt P10635); details: cited from earlier work
hCYP2D6 1 [3] = molecular target: T1, hCYP2D6 1; details: V79MZh2D6*1 homogenate, NADPH (Bogni, 1999); racemic bufuralol; cited from earlier work
hCYP2D6*1 and hCYPOR = hCYP2D6*1 and hCYPOR (Homo sapiens, UniProt P10635); details: V79MZh2D6*1-hOR homogenate; 200 μM racemic bufuralol
Description: 30 μg of Sca I linearized pSV450h2D6*1 DNA and 1 μg of Sca I linearized pRc/RSV-hCYPOR DNA were transfected. […] As in the case of transfection samples T1-T5, the expression vector pSV450h2D6*1 was employed in a 30fold excess over resistance vector pRc/RSV-hCYPOR.

hCYP2D6 [4] = molecular target: T2, hCYP2D6 (Homo sapiens, UniProt P10635); test: Effect of DMSO on tamoxifen-4-hydroxylase activity; type: biochemical; design: expressed in transfected cells; host or cells: V79MZ Chinese hamster fibroblasts (V79MZh2D6*1, DSM ACC2446; also V79MZh2D6*1-H and -S)
T2 sequence (P10635 whole entry): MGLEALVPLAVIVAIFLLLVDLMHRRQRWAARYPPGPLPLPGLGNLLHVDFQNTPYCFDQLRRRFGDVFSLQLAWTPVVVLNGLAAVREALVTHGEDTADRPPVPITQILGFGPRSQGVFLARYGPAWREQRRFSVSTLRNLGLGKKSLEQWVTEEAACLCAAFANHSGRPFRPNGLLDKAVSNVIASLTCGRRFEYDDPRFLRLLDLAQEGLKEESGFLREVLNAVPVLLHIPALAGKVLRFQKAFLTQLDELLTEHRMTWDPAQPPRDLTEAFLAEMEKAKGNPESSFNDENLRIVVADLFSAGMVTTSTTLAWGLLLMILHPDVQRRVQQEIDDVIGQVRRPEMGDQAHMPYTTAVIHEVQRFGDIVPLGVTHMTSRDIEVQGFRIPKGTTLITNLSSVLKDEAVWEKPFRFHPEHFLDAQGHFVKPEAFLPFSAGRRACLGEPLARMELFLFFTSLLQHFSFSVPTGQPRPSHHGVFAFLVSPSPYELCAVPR

hCYP2D6 [5] = molecular target: T2, hCYP2D6
hCYP2D6 9 = hCYP2D6 9 (Homo sapiens, UniProt P10635, DEL281-281); test: Effect of quinidine on the stability of hCYP2D6 (CO difference spectra); details: hCYP2D6 9 (V79MZh2D6*9); quinidine added to the culture medium during cultivation
Chain of hCYP2D6 9 (P10635 with tags, fused parts or gaps DEL281-281): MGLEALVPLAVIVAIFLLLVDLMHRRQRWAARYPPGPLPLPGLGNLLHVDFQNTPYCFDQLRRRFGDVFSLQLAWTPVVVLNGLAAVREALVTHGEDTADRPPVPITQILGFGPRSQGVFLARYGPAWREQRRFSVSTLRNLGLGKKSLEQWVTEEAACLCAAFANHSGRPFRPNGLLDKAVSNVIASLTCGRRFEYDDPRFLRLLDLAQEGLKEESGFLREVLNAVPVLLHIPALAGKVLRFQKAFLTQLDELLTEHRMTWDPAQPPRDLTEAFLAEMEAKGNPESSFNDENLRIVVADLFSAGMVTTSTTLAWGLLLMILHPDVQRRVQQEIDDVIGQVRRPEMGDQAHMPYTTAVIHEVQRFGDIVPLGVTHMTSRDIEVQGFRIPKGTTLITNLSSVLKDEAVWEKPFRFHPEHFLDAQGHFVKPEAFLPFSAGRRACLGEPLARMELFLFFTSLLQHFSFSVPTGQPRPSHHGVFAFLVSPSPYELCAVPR
Description: For the preparation of a cell homogenate, the V79MZ cells were cultured in at least three 250 ml tissue culture flasks up to a confluence of 80-100%. […] The medium was discarded, followed by rinsing twice with 5 ml icecold buffer (100 mM potassium phosphate, pH 7.4). The cells were loosened from the dish by means of a rubber scraper into 4 ml of icecold buffer, combined and pelleted by centrifugation for 10 min at 1500×g and 4° C. […] All aliquots were shock frozen in liquid nitrogen to disrupt the cells and afterwards stored at −80° C. until use.
The supernatant was introduced into a 2 ml glas-on-glas homogenizator, reduced by adding several crystals of sodium dithionite (Sigma, Deisenhofen) followed by 15 strokes, and split up between two quartz cuvettes.

human liver microsomes = details: cited from earlier work; for contribution to the 4-hydroxylation of tamoxifen: human liver microsomes (Crewe et al., 1997); for tamoxifen-4-hydroxylation activity: 1 μM tamoxifen (Crewe et al., 1997)
V79MZh2D6 cells [6] = tested on: V79MZh2D6 cells
V79MZh2D6 cells [7] = test: Supplementation of culture medium with heme sources (cytotoxic limit, bufuralol hydroxylase activity); details: up to the cytotoxic limit
[8] = E. coli, purified, CYPOR/NADPH (Gillam et al., 1995)
[9] = Sf9 insect cells cell extract, CYPOR/NADPH (Paine et al., 1996)
[10] = AHH-1 TK+/− (h2D6Val/OR) microsomes, CYPOR/NADPH (Gentest, produkt # M117r)
[11] = AHH-1 TK+/− (h2D6Metv2) microsomes, NADPH (Penman et al., 1993)
[12] = Hep G2 cell lysate, CuOOH (Tyndale et al., 1991a)
[13] = S. cerevisiae W(R) microsomes, Yred/NADPH (Oscarson et al., 1997)
[14] = Sf9 insect cells membranes, CYPOR/NADPH (Evert et al., 1997)
[15] = Sf9 insect cells membranes, CYPOR/NADPH (Patten et al., 1996)

T1 sequence (P10635 whole entry): as the sequence (P10635 whole entry) above

## CCc1cccc2cc(C(O)CNC(C)(C)C)oc12 (racemic) [racemic bufuralol]
hCYP2D6 1 [1]; [8]
  Reaction rate (+/−): 1.2 ± 0.1 min⁻¹
  Km: 39 ± 5 µM
hCYP2D6 1 [1]; [9]
  Reaction rate (+/−): 12.23 min⁻¹
  Vmax (+/−): 370 pmol/mg/min
  Km: 4.7 µM
hCYP2D6 1 [2]; [10]
  Reaction rate (+/−): 10.38 min⁻¹
  Vmax (+/−): 550 pmol/mg/min
hCYP2D6 1 [2]; purified from human liver, CYPOR/NADPH (Distlerath et al., 1985)
  Reaction rate (+/−): 4.4 to 6.4 min⁻¹
hCYP2D6 1 [3]
  Vmax (+/−): 153 ± 26 pmol/mg/min
hCYP2D6*1 and hCYPOR
  bufuralol hydroxylase activity: 143 ± 6 pmol/mg/min

## CCc1cccc2cc([C@H](O)CNC(C)(C)C)oc12 [(+)-bufuralol]
hCYP2D6 1 [1]; AHH-1 TK+/− (2D6Met/Hol) cell lysate, NADPH (Crespi et al., 1991)
  Vmax (+): 68 ± 0 pmol/mg/min
hCYP2D6 1 [1]; AHH-1 TK+/− (h2D6Metv2) cell lysate, NADPH (Penman et al., 1993)
  Vmax (+): 126 ± 1 pmol/mg/min
hCYP2D6 1 [1]; [11]
  Reaction rate (+): 4.5 min⁻¹
  Vmax (+): 723 ± 35 pmol/mg/min
hCYP2D6 1 [1]; COS-1 cells homogenate, CYPOR/NADPH (Johansson et al., 1994)
  Vmax (+): 3.4 pmol/mg/min
hCYP2D6 1 [1]; COS-1 cells homogenate, NADPH (Kagimoto et al., 1990)
  Vmax (+): 20 to 50 pmol/mg/min
hCYP2D6 1 [1]; [12]
  Reaction rate (+): 2.3 min⁻¹
  Vmax (+): 34.1 pmol/mg/min
hCYP2D6 1 [1]; [13]
  Reaction rate (+): 10 min⁻¹
  Vmax (+): 116 pmol/mg/min
hCYP2D6 1 [1]; [14]
  Reaction rate (+): 26.2 ± 0.4 min⁻¹
  Vmax (+): 17500 ± 2700 pmol/mg/min
hCYP2D6 1 [1]; [15]
  Reaction rate (+): 0.96 min⁻¹
  Vmax (+): 500 to 1000 pmol/mg/min

## C[S+](C)[O-] [DMSO, dimethylsulfoxide]
hCYP2D6 [4]; 10% DMSO
  tamoxifen-4-hydroxylase activity relative to that obtained at […] DMSO: about 20%
hCYP2D6 [4]; up to a DMSO concentration of […]
  effect on tamoxifen-4-hydroxylase activity: only sligthly affected

## CC/C(=C(\c1ccccc1)c1ccc(OCCNC)cc1)c1ccccc1 [Z-N-demethyl-tamoxifen]
hCYP2D6 [5]
  metabolism by V79MZh2D6 homogenate (hCYP2D6-catalyzed hydroxylation): proceeded well

## CC/C(=C(\c1ccccc1)c1ccc(OCCN)cc1)c1ccccc1 [Z-N-didemethyl-tamoxifen]
hCYP2D6 [5]
  metabolism by V79MZh2D6 homogenate (hCYP2D6-catalyzed hydroxylation): negligible

## CC/C(=C(\c1ccccc1)c1ccc(OCC[N+](C)(C)[O-])cc1)c1ccccc1 [Z-Tamoxifen-N-oxide]
hCYP2D6 [5]
  metabolism by V79MZh2D6 homogenate (hCYP2D6-catalyzed hydroxylation): only to a minor extent

## C=C[C@H]1C[N@@]2CC[C@H]1C[C@@H]2[C@@H](O)c1ccnc2ccc(OC)cc12 [quinidine]
hCYP2D6 9
  increase in the amount of cytochrome P450: 4-6 fold

## CC/C(=C(\c1ccccc1)c1ccc(OCCN(C)C)cc1)c1ccccc1 [tamoxifen]
Human liver microsomes; hCYP2C9*1
  contribution to the 4-hydroxylation of tamoxifen: +
Human liver microsomes; hCYP2D6*1
  contribution to the 4-hydroxylation of tamoxifen: +
Human liver microsomes; hCYP2E1
  contribution to the 4-hydroxylation of tamoxifen: −
Human liver microsomes; hCYP3A4
  contribution to the 4-hydroxylation of tamoxifen: +
Human liver microsomes; human liver microsomes of extensive metabolizers
  tamoxifen-4-hydroxylation activity: 1.1-3 pmol/min/mg protein
Human liver microsomes; human liver microsomes of poor metabolizers
  tamoxifen-4-hydroxylation activity: 0.7-0.8 pmol/min/mg protein

## hemin chloride
V79MZh2D6 cells [6]
  cytotoxic limit: 10 µM
V79MZh2D6 cells [7]
  bufuralol hydroxylase activity per mg total protein in the cell homogenate after supplementation: no increased bufuralol hydroxylase activity
